According to ChEMBL document CHEMBL5537127, “Design and synthesis of novel hederagonic acid analogs as potent anti-inflammatory compounds capable of protecting against LPS-induced acute lung injury” (Eur J Med Chem, 2024):

What was measured:
RAW264.7 [1] = experiment: Anti-inflammatory activity against LPS-induced mouse RAW264.7 cells assessed as inhibition of NO production at 10 uM preincubated for 2 hrs followed by LPS addition and measured after 24 hrs by Griess reagent-based microplate reader analysis relative to control; format: functional; set-up: scale not given: the % may be the effect or the level left; conditions: time 26 hrs
[2] = Cytotoxicity against mouse RAW264.7 cells assessed as cell viability at 40 uM incubated for 24 hrs by MTT assay relative to control; format: toxicity, cell-based; conditions: read-out: Activity
RAW264.7 [3] = experiment: Anti-inflammatory activity against LPS-induced mouse RAW264.7 cells assessed as inhibition of NO production at 20 uM preincubated for 2 hrs followed by LPS addition and measured after 24 hrs by Griess reagent-based microplate reader analysis relative to control; format: functional; set-up: scale not given: the % may be the effect or the level left; conditions: time 26 hrs

Compound	Activity (RAW264.7 [1]) [%]	viability at 24 h, 40 µM [2] [%]	Activity (RAW264.7 [3]) [%]
CC1(C)CC[C@]2(C(=O)OCc3ccccc3)CC[C@]3(C)C(=CC[C@@H]4[C@@]5(C)CCC(=O)[C@@](C)(COC(=O)CCn6cccc6)[C@@H]5CC[C@]43C)[C@@H]2C1	7.3	96.9	12.08
CC1(C)CC[C@]2(C(=O)OCc3ccccc3)CC[C@]3(C)C(=CC[C@@H]4[C@@]5(C)CCC(=O)[C@@](C)(COC(=O)CCN6CCCCC6)[C@@H]5CC[C@]43C)[C@@H]2C1	–	3.82	–
CC1(C)CC[C@]2(C(=O)OCc3ccccc3)CC[C@]3(C)C(=CC[C@@H]4[C@@]5(C)CCC(=O)[C@@](C)(COC(=O)C(F)(F)F)[C@@H]5CC[C@]43C)[C@@H]2C1	–	4.58	–
CC1(C)CC[C@]2(C(=O)OCc3ccccc3)CC[C@]3(C)C(=CC[C@@H]4[C@@]5(C)CCC(=O)[C@@](C)(COC(=O)CNC(=O)CNC(=O)CCCC[C@@H]6CCSS6)[C@@H]5CC[C@]43C)[C@@H]2C1	–	78.5	–
CC1(C)CC[C@]2(C(=O)OCc3ccccc3)CC[C@]3(C)C(=CC[C@@H]4[C@@]5(C)CCC(=O)[C@@](C)(COC(=O)CCCC[C@@H]6CCSS6)[C@@H]5CC[C@]43C)[C@@H]2C1	29.81	119	56.28
CC1(C)CC[C@]2(C(=O)OCc3ccccc3)CC[C@]3(C)C(=CC[C@@H]4[C@@]5(C)C/C(=C/c6cnccn6)C(=O)[C@@](C)(CO)[C@@H]5CC[C@]43C)[C@@H]2C1	4.56	3.34	5.02
CC1(C)CC[C@]2(C(=O)OCc3ccccc3)CC[C@]3(C)C(=CC[C@@H]4[C@@]5(C)C/C(=C/c6nccs6)C(=O)[C@@](C)(CO)[C@@H]5CC[C@]43C)[C@@H]2C1	–	62.8	–
CC1(C)CC[C@]2(C(=O)OCc3ccccc3)CC[C@]3(C)C(=CC[C@@H]4[C@@]5(C)C/C(=C/c6cccc(Br)c6)C(=O)[C@@](C)(CO)[C@@H]5CC[C@]43C)[C@@H]2C1	3.77	94	3.82
COCC(=O)OC[C@]1(C)C(=O)CC[C@@]2(C)[C@H]1CC[C@]1(C)[C@@H]2CC=C2[C@@H]3CC(C)(C)CC[C@]3(C(=O)OCc3ccccc3)CC[C@]21C	42.74	105	61.15
CC1(C)CC[C@]2(C(=O)OCc3ccccc3)CC[C@]3(C)C(=CC[C@@H]4[C@@]5(C)C/C(=C/c6ccc(Br)cc6)C(=O)[C@@](C)(CO)[C@@H]5CC[C@]43C)[C@@H]2C1	6.09	92.9	10.62
CC(=O)CCC(=O)OC[C@]1(C)C(=O)CC[C@@]2(C)[C@H]1CC[C@]1(C)[C@@H]2CC=C2[C@@H]3CC(C)(C)CC[C@]3(C(=O)OCc3ccccc3)CC[C@]21C	43.51	106	59.4
CC1(C)CC[C@]2(C(=O)OCc3ccccc3)CC[C@]3(C)C(=CC[C@@H]4[C@@]5(C)CCC(=O)[C@@](C)(COC(=O)c6cc7ccccc7[nH]6)[C@@H]5CC[C@]43C)[C@@H]2C1	22.29	110	42.11
CC1(C)CC[C@]2(C(=O)OCc3ccccc3)CC[C@]3(C)C(=CC[C@@H]4[C@@]5(C)CCC(=O)[C@@](C)(CO)[C@@H]5CC[C@]43C)[C@@H]2C1	13.3	106	13.6
CC1(C)CC[C@]2(C(=O)OCc3ccccc3)CC[C@]3(C)C(=CC[C@@H]4[C@@]5(C)CCC(=O)[C@@](C)(COC(=O)CNC(=O)CCCC[C@@H]6CCSS6)[C@@H]5CC[C@]43C)[C@@H]2C1	28.81	114	46.99
CC1(C)CC[C@]2(C(=O)OCc3ccccc3)CC[C@]3(C)C(=CC[C@@H]4[C@@]5(C)CCC(=O)[C@@](C)(COC(=O)CCCCNC(=O)CCCC[C@@H]6CCSS6)[C@@H]5CC[C@]43C)[C@@H]2C1	–	31.6	–
CC1(C)CC[C@]2(C(=O)OCc3ccccc3)CC[C@]3(C)C(=CC[C@@H]4[C@@]5(C)CCC(=O)[C@@](C)(COC(=O)CCC6CCCC6)[C@@H]5CC[C@]43C)[C@@H]2C1	0.34	105	0.76
CC1(C)CC[C@]2(C(=O)O)CC[C@]3(C)C(=CC[C@@H]4[C@@]5(C)CCC(=O)[C@@](C)(CO)[C@@H]5CC[C@]43C)[C@@H]2C1	–	109	–

Compound	Activity (RAW264.7 [1]) [%]	viability at 24 h, 40 µM [2] [%]	Activity (RAW264.7 [3]) [%]
CC1(C)CC[C@]2(C(=O)OCc3ccccc3)CC[C@]3(C)C(=CC[C@@H]4[C@@]5(C)CCC(=O)[C@@](C)(COC(=O)CCC6CCCCC6)[C@@H]5CC[C@]43C)[C@@H]2C1	0.64	110	2.05
CC1(C)CC[C@]2(C(=O)OCc3ccccc3)CC[C@]3(C)C(=CC[C@@H]4[C@@]5(C)C/C(=C/c6cscn6)C(=O)[C@@](C)(CO)[C@@H]5CC[C@]43C)[C@@H]2C1	–	85	–
CC1(C)CC[C@]2(C(=O)OCc3ccccc3)CC[C@]3(C)C(=CC[C@@H]4[C@@]5(C)C/C(=C/c6ccccc6[N+](=O)[O-])C(=O)[C@@](C)(CO)[C@@H]5CC[C@]43C)[C@@H]2C1	1.44	65	7.94
CC1(C)CC[C@]2(C(=O)OCc3ccccc3)CC[C@]3(C)C(=CC[C@@H]4[C@@]5(C)C/C(=C/c6cccs6)C(=O)[C@@](C)(CO)[C@@H]5CC[C@]43C)[C@@H]2C1	–	72.1	–
CC1(C)CC[C@]2(C(=O)OCc3ccccc3)CC[C@]3(C)C(=CC[C@@H]4[C@@]5(C)CCC(=O)[C@@](C)(COC(=O)CC#N)[C@@H]5CC[C@]43C)[C@@H]2C1	40.79	93.1	57.99
CC1(C)CC[C@]2(C(=O)OCc3ccccc3)CC[C@]3(C)C(=CC[C@@H]4[C@@]5(C)CCC(=O)[C@@](C)(COC(=O)CCc6c[nH]c7ccccc67)[C@@H]5CC[C@]43C)[C@@H]2C1	0.17	107	0.43
CC1(C)CC[C@]2(C(=O)OCc3ccccc3)CC[C@]3(C)C(=CC[C@@H]4[C@@]5(C)CCC(=O)[C@@](C)(COC(=O)CCCCCNC(=O)CCCC[C@@H]6CCSS6)[C@@H]5CC[C@]43C)[C@@H]2C1	49.56	99.7	75.31
CC1(C)CC[C@]2(C(=O)OCc3ccccc3)CC[C@]3(C)C(=CC[C@@H]4[C@@]5(C)C/C(=C/c6cncs6)C(=O)[C@@](C)(CO)[C@@H]5CC[C@]43C)[C@@H]2C1	–	64.8	–
CC1(C)CC[C@]2(C(=O)OCc3ccccc3)CC[C@]3(C)C(=CC[C@@H]4[C@@]5(C)C/C(=C/c6ccccc6)C(=O)[C@@](C)(CO)[C@@H]5CC[C@]43C)[C@@H]2C1	–	68.1	–
CC1(C)CC[C@]2(C(=O)OCc3ccccc3)CC[C@]3(C)C(=CC[C@@H]4[C@@]5(C)CCC(=O)[C@@](C)(COC(=O)CCNC(=O)CCCC[C@@H]6CCSS6)[C@@H]5CC[C@]43C)[C@@H]2C1	43.82	99.4	62.67
CC1(C)CC[C@]2(C(=O)OCc3ccccc3)CC[C@]3(C)C(=CC[C@@H]4[C@@]5(C)C/C(=C/c6ccsc6)C(=O)[C@@](C)(CO)[C@@H]5CC[C@]43C)[C@@H]2C1	–	66.9	–
CC1(C)CC[C@]2(C(=O)OCc3ccccc3)CC[C@]3(C)C(=CC[C@@H]4[C@@]5(C)C/C(=C/c6ccccc6Br)C(=O)[C@@](C)(CO)[C@@H]5CC[C@]43C)[C@@H]2C1	5.33	92.2	12.61
CC1(C)CC[C@]2(C(=O)OCc3ccccc3)CC[C@]3(C)C(=CC[C@@H]4[C@@]5(C)CCC(=O)[C@@](C)(COC(=O)CCc6ccccc6)[C@@H]5CC[C@]43C)[C@@H]2C1	–	76.1	–
CC1(C)CC[C@]2(C(=O)OCc3ccccc3)CC[C@]3(C)C(=CC[C@@H]4[C@@]5(C)C/C(=C/c6cccc([N+](=O)[O-])c6)C(=O)[C@@](C)(CO)[C@@H]5CC[C@]43C)[C@@H]2C1	1.09	109	9.38
CC1(C)CC[C@]2(C(=O)OCc3ccccc3)CC[C@]3(C)C(=CC[C@@H]4[C@@]5(C)C/C(=C/c6ccc([N+](=O)[O-])cc6)C(=O)[C@@](C)(CO)[C@@H]5CC[C@]43C)[C@@H]2C1	–	119	–
CC(C)=CC(=O)OC[C@]1(C)C(=O)CC[C@@]2(C)[C@H]1CC[C@]1(C)[C@@H]2CC=C2[C@@H]3CC(C)(C)CC[C@]3(C(=O)OCc3ccccc3)CC[C@]21C	16.39	95	25.68
CC[C@H](C)[C@H](NC(=O)CCCC[C@@H]1CCSS1)C(=O)OC[C@]1(C)C(=O)CC[C@@]2(C)[C@H]1CC[C@]1(C)[C@@H]2CC=C2[C@@H]3CC(C)(C)CC[C@]3(C(=O)OCc3ccccc3)CC[C@]21C	17.94	96	25.3
